Laboratory results reported in patent US9278994B2, “Short antimicrobial lipopeptides” (Helix BioMedix Inc., priority 2012, dated 2016).
≈ marks a conversion by molar mass, not a printed value. Where a SMILES comes first, the peptide text is derived from it. [ ]: non-standard residue; d: D form. The star is where a group is joined. Stearoyl = CCCCCCCCCCCCCCCCCC(=O)*; Palmitoyl = CCCCCCCCCCCCCCCC(=O)*; Myristoyl = CCCCCCCCCCCCCC(=O)*; Undecanoyl = CCCCCCCCCCC(=O)*; Lauroyl = CCCCCCCCCCCC(=O)*; Decanoyl = CCCCCCCCCC(=O)*; Octanoyl = CCCCCCCC(=O)*

Key:
[1] = tested on: C. albicans 105
Procedure: (§1) We conducted the minimal inhibitory concentration (MIC) determination using CLSI (Clinical and Laboratory standard Institute) recommended standard protocol for antimicrobials (Methods for Dilution Antimicrobial Susceptibility Tests for Bacteria That Grow Aerobically; Approved Standard—Ninth Edition).
(§2) 2. Bacterial strains and culture conditions. E. coli UB1005, S. aureus SAP0017 (MRSA) and C. albicans 105 were grown in Mueller Hinton (MH) (Difco, BD Biosciences, MD) agar plates and broth (2 g of beef extract, 17.5 g of acid hydrolysis of casein and 1.5 g of starch per liter) at 37° C. unless otherwise indicated. Bacteria from frozen stock were subcultured onto freshly made MH agar plates prior to susceptibility testing. For P. acnes, the bacterium was grown in BBL™ Brain-Heart infusion (Becton, Dickinson & Company, Sparks Md.) broth or agar plates at 37° C. in anaerobic condition generated using a anaerobic jar and AnaeroGen™ (Oxoid, Basingstoke, Hampshire, England).
(§3) 3. […] The minimal inhibitory concentration (MIC) of each peptide was determined using modified CLSI microtiter broth dilution assay (Methods for Dilution Antimicrobial Susceptibility Tests for Bacteria That Grow Aerobically; Approved Standard—Ninth Edition). An inoculum of 10^5-10^6 colony forming units (CFU)/ml was used or 10^4 CFU/ml for yeast. The MIC value was taken as the lowest peptide concentration at which more than 90% of microbial growth was inhibited after 15 to 20 h of incubation at 37° C. For P. acnes, the incubation was kept under anaerobic condition at 37° C. for 2 weeks before MIC was determined Kill kinetics was performed using a given concentration (about 2-5-fold MIC) of peptide mixed with indicator microorganism. After appropriate dilution the cells were plated on agar plates after defined time intervals and incubated at 37° C. overnight. In the case of P. acnes an extended incubation period was required. The CFU was counted and plotted as survival of bacteria after peptide treatment over time, which indicates the effectiveness of a peptide to kill a microbe.

[2] = tested on: E. coli UB1005
Procedure: as §1, §2, §3

[3] = tested on: S. aureus SAP0017 (MRSA)
Procedure: as §1, §2, §3

[4] = tested on: P. acnes; type: cell-based, Propionibacterium acnes
Procedure: as §2, §3

Row | Structure (SMILES) | MIC C. albicans [1] [µg/mL] | MIC E. coli [2] [µg/mL] | MIC S. aureus [3] [µg/mL] | MIC P. acnes [4] [µg/mL]
1 | CCCCCCCCCC(=O)N[C@@H](CCCCN)C(=O)N1CCC[C@@H]1C(=O)N[C@H](C(N)=O)[C@@H](C)O [HB2179, Dec-K-dPT-NH2] (Decanoyl-Lys-[dP]-Thr-NH2) | >2000 | >2000 | >2000 | >2000
2 | CCCCCCCCCC(=O)N[C@@H](CCCCN)C(=O)N1CCC[C@H]1C(=O)N[C@H](C(N)=O)C(C)C [HB2181, Dec-KPV-NH2] (Decanoyl-Lys-Pro-Val-NH2) | >2000 | >2000 | >2000 | 1000 (≈ 2020 µM)
3 | CCCCCCCCCC(=O)N[C@@H](CCCCN)C(=O)N1CCC[C@@H]1C(=O)N[C@H](C(=O)O)[C@@H](C)O [HB2183, Dec-KdPT-OH] (Decanoyl-Lys-[dP]-Thr-OH) | >2000 | >2000 | >2000 | >2000
4 | CCCCCCCCCC(=O)N[C@@H](CCCCN)C(=O)N1CCC[C@H]1C(=O)N[C@H](C(=O)O)C(C)C [HB2185, Dec-KPV-OH] (Decanoyl-Lys-Pro-Val-OH) | >2000 | >2000 | >2000 | >2000
5 | CCCCCCCC(=O)N[C@@H](CCCCN)C(=O)N1CCC[C@H]1C(=O)N[C@H](C(N)=O)C(C)C [HB2188, Octanoyl-KPV-NH2] (Octanoyl-Lys-Pro-Val-NH2) | >2000 | >2000 | >2000 | >2000
6 | CCCCCCCCCCC(=O)N[C@@H](CCCCN)C(=O)N1CCC[C@H]1C(=O)N[C@H](C(N)=O)C(C)C [HB2189, Undecoyl-KPV-NH2] (Undecanoyl-Lys-Pro-Val-NH2) | >2000 | 2000 (≈ 3920 µM) | 1000 (≈ 1960 µM) | 256 to 500
7 | CCCCCCCCCCCC(=O)N[C@@H](CCCCN)C(=O)N1CCC[C@H]1C(=O)N[C@H](C(N)=O)C(C)C [HB2190, Lauroyl-KPV-NH2] (Lauroyl-Lys-Pro-Val-NH2) | >2000 | 250 (≈ 477 µM) | 250 (≈ 477 µM) | 64 (≈ 122 µM)
8 | CCCCCCCCCCCCCC(=O)N[C@@H](CCCCN)C(=O)N1CCC[C@H]1C(=O)N[C@H](C(N)=O)C(C)C [HB2191, Myristoyl-KPV-NH2] (Myristoyl-Lys-Pro-Val-NH2) | 250 (≈ 453 µM) | 500 (≈ 906 µM) | 250 (≈ 453 µM) | 16 (≈ 29 µM)
9 | CCCCCCCCCCCCCCC(=O)N[C@@H](CCCCN)C(=O)N1CCC[C@H]1C(=O)N[C@H](C(N)=O)C(C)C [HB2192, Pentadecanoyl-KPV-NH2] | 32 (≈ 56.6 µM) | 64 (≈ 113 µM) | 16 (≈ 28.3 µM) | 1 (≈ 1.77 µM)
10 | CCCCCCCCCCCCCCCCCC(=O)N[C@@H](CCCCN)C(=O)N1CCC[C@H]1C(=O)N[C@H](C(N)=O)C(C)C [HB2194, Stearoyl-KPV-NH2] (Stearoyl-Lys-Pro-Val-NH2) | 16 (≈ 26.3 µM) | >2000 | 16 (≈ 26.3 µM) | 1 to 2
11 | CCCCCCCC(=O)N[C@@H](CCCCN)C(=O)N1CCC[C@@H]1C(=O)N[C@H](C(N)=O)[C@@H](C)O [HB2195, Octanoyl-KdPT-NH2] (Octanoyl-Lys-[dP]-Thr-NH2) | >2000 | >2000 | >2000 | >2000
12 | CCCCCCCCCCC(=O)N[C@@H](CCCCN)C(=O)N1CCC[C@@H]1C(=O)N[C@H](C(N)=O)[C@@H](C)O [HB2196, Undecoyl-KdPT-NH2] (Undecanoyl-Lys-[dP]-Thr-NH2) | 1000 (≈ 1950 µM) | 2000 (≈ 3910 µM) | 1000 (≈ 1950 µM) | 256 to 500
13 | CCCCCCCCCCCC(=O)N[C@@H](CCCCN)C(=O)N1CCC[C@@H]1C(=O)N[C@H](C(N)=O)[C@@H](C)O [HB2197, Lauroyl-kdPT-NH2] (Lauroyl-Lys-[dP]-Thr-NH2) | 500 (≈ 951 µM) | 1000 (≈ 1900 µM) | 500 (≈ 951 µM) | 128 (≈ 243 µM)
14 | CCCCCCCCCCCCCC(=O)N[C@@H](CCCCN)C(=O)N1CCC[C@@H]1C(=O)N[C@H](C(N)=O)[C@@H](C)O [HB2198, Myristoyl-KdPT-NH2] (Myristoyl-Lys-[dP]-Thr-NH2) | 64 (≈ 116 µM) | 128 (≈ 231 µM) | 64 (≈ 116 µM) | 8 to 16
15 | CCCCCCCCCCCCCCC(=O)N[C@@H](CCCCN)C(=O)N1CCC[C@@H]1C(=O)N[C@H](C(N)=O)[C@@H](C)O [HB2199, Pentadecanoyl-KdPT-NH2] | 32 (≈ 56.4 µM) | 64 (≈ 113 µM) | 32 (≈ 56.4 µM) | 2 to 4
16 | CCCCCCCCCCCCCCCC(=O)N[C@@H](CCCCN)C(=O)N1CCC[C@@H]1C(=O)N[C@H](C(N)=O)[C@@H](C)O [HB2200, Pal-K-dPT-NH2] (Palmitoyl-Lys-[dP]-Thr-NH2) | 16 (≈ 27.5 µM) | 64 (≈ 110 µM) | 4 (≈ 6.87 µM) | 2 (≈ 3.44 µM)
17 | CCCCCCCCCCCCCCCCCC(=O)N[C@@H](CCCCN)C(=O)N1CCC[C@@H]1C(=O)N[C@H](C(N)=O)[C@@H](C)O [HB2201, Stearoyl-K-dPT-NH2] (Stearoyl-Lys-[dP]-Thr-NH2) | 8 (≈ 13.1 µM) | 128 (≈ 210 µM) | 16 (≈ 26.2 µM) | 1 to 2
18 | CCCCCCCCCCCCCCCC(=O)N1CCC[C@H]1C(=O)N[C@H](C(N)=O)C(C)C [HB2205, Pal-PV-NH2] (Palmitoyl-Pro-Val-NH2) | >2000 | >2000 | >2000 | >2000
19 | CCCCCCCCCCCCCCCC(=O)N1CCC[C@@H]1C(=O)N[C@@H](CO)C(N)=O [HB2207, Pal-dPS-NH2] (Palmitoyl-[dP]-Ser-NH2) | >2000 | >2000 | >2000 | 32 (≈ 72.8 µM)
20 | CCCCCCCCCCCCCCCC(=O)N[C@@H](CCCCN)C(=O)N[C@H](C(N)=O)[C@@H](C)O [HB2236, Pal-KT-NH2] | >2000 | >2000 | >2000 | 256 to 1000
21 | CCCCCCCCCCCCCCCC(=O)N[C@@H](CCCCN)C(=O)N[C@@H](C(N)=O)[C@H](C)O [HB2237, Pal-K-dT-NH2] | >2000 | >2000 | >2000 | 128 to 256
22 | CCCCCCCCCCCCCCCC(=O)N[C@@H](CCCCN)C(=O)N[C@@H](CCCCN)C(N)=O [HB2238, Pal-KK-NH2] | 16 (≈ 31.3 µM) | 2 (≈ 3.91 µM) | 4 (≈ 7.82 µM) | 
23 | CCCCCCCCCCCCCCCC(=O)N[C@@H](CCCCN)C(=O)N[C@@H](CC(=O)O)C(N)=O [HB2252, Pal-KD-NH2] (Palmitoyl-Lys-Asp-NH2) | >2000 | >2000 | >2000 | 
